pKi: −log10 of the molar value. In brackets after ≈: the same amount, converted by molar mass. Positions of bridges follow the written chain, without caps; N, C: chain ends. Non-standard residues stand in square brackets, D forms with d. Residues, ends and D or L forms follow the SMILES beside them. Groups on a side chain read outwards from the residue. ξ: configuration not given here. *: point of attachment. Palmitoyl(16-(5-tetrazolyl)) = O=C(CCCCCCCCCCCCCCCc1nnn[nH]1)*; Lys(CH2CO2H)2 = N[C@@H](CCCCN(CC(=O)O)CC(=O)O)C(=O)O; C17 diacid = O=C(O)CCCCCCCCCCCCCCCC(=O)*; Hyp = O=C(O)[C@@H]1C[C@@H](O)CN1; ξH = NC(Cc1c[nH]cn1)C(=O)O; Orn = NCCC[C@H](N)C(=O)O; Dap = NC[C@H](N)C(=O)O; AEEA = NCCOCCOCC(=O)O; ξK = NCCCCC(N)C(=O)O
What was measured:
MC1 receptor = MC1 receptor (Homo sapiens, UniProt Q01726); assay: biochemical
Sequence of MC1 receptor (Q01726 whole entry): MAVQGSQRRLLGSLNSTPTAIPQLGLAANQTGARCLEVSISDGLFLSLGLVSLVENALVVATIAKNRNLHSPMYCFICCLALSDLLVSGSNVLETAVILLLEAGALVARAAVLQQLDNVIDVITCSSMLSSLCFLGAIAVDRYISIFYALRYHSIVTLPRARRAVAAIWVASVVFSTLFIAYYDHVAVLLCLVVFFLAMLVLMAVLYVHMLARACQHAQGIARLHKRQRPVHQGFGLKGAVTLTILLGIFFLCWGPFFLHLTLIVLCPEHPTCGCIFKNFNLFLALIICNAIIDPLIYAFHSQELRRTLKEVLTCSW
How it was run: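 Radioligand competition on membranes (25 μg/ml) of BHK cells stably expressing MC1, with 22 pM final 125I-NDP-α-MSH in 25 mM HEPES pH 7.4, Ca/Mg, EDTA, 0.1% HSA (or ovalbumin), 0.005% Tween 20. Incubated 90 min at 30 °C, filtered over PEI-treated GF/B; curves fitted by non-linear regression.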

physchem = assay: physchem
Method: From a stock solution in vehicle, either H2O or 10 mM phosphate, containing 1 mg (as weighed) compound per ml, 8-11 aliquots are withdrawn and pH-adjusted individually with HCl/NaOH, to cover the whole pH range.

SMILES: CC(=O)N[C@H]1CCCNC(=O)C[C@@H](C(=O)N2CCC[C@H]2C(=O)N[C@@H](CO)C(=O)NC(CCCCN)C(=O)N[C@@H](CCC(=O)O)C(=O)N[C@@H](CCC(=O)O)C(=O)N[C@@H](CO)C(=O)N[C@@H](CO)C(=O)N[C@@H](CCCCNC(=O)COCCOCCNC(=O)CCCCCCCCCCCCCCCC(=O)O)C(N)=O)NC(=O)CNC(=O)[C@H](Cc2c[nH]c3ccccc23)NC(=O)[C@H](CCCNC(=N)N)NC(=O)[C@@H](Cc2ccccc2)NC(=O)C(Cc2c[nH]cn2)NC(=O)[C@H](CCC(=O)O)NC1=O (stereo partly shown) [Example 40] (Ac-[Orn]E[ξH][dF]RWGDPS[ξK]EESSK([AEEA-C17 diacid])-NH2; lactam 1-8)
- pKi (MC1 receptor): < 5.00
- solubility (physchem; pH 5.9, Solubility Conc.): 266 µM (≈ 634 µg/mL)
- solubility (physchem; pH 6.3, Solubility Conc.): 501 µM (≈ 1190 µg/mL)
- solubility (physchem; pH 6.5, Solubility Conc.): 512 µM (≈ 1220 µg/mL)
- solubility (physchem; pH 6.7, Solubility Conc.): 493 µM (≈ 1180 µg/mL)
- solubility (physchem; pH 7, Solubility Conc.): 505 µM (≈ 1200 µg/mL)
- solubility (physchem; pH 7.4, Solubility Conc.): 499 µM (≈ 1190 µg/mL)
- solubility (physchem; pH 7.6, Solubility Conc.): 489 µM (≈ 1170 µg/mL)
- solubility (physchem; pH 8, Solubility Conc.): 488 µM (≈ 1160 µg/mL)
- solubility (physchem; pH 8.2, Solubility Conc.): 503 µM (≈ 1200 µg/mL)

SMILES: CC(=O)N[C@H]1CC(=O)NC[C@@H](C(=O)N2CCC[C@H]2C(=O)N2CCC[C@H]2C(=O)N[C@@H](CCCNC(=N)N)C(=O)N[C@@H](CC(=O)O)C(=O)N[C@@H](CCCCN(CC(=O)O)CC(=O)O)C(=O)N[C@@H](CCCCNC(=O)COCCOCCNC(=O)CCCCCCCCCCCCCCCc2nnn[nH]2)C(N)=O)NC(=O)[C@H](Cc2c[nH]c3ccccc23)NC(=O)[C@H](CCCNC(=N)N)NC(=O)[C@@H](Cc2ccccc2)NC(=O)[C@H](Cc2c[nH]cn2)NC1=O [Example 41, Ac-c[Asp-His-D-Phe-Arg-Trp-Dap]-Pro-Pro-Arg-Asp-Lys(biscarboxymethyl)-Lys[(2-{2-[16-(tetrazol-5-yl)hexadecanoylamino]ethoxy}ethoxy)acetyl]-NH2] (Ac-DH[dF]RW[Dap]PPRD[Lys(CH2CO2H)2]K([AEEA-Palmitoyl(16-(5-tetrazolyl))])-NH2; lactam 1-6)
- pKi (MC1 receptor): < 5.00
- solubility (physchem; pH 7, Solubility Conc.): 39 µM (≈ 84.2 µg/mL)
- solubility (physchem; pH 7.3, Solubility Conc.): 87 µM (≈ 188 µg/mL)
- solubility (physchem; pH 7.4, Solubility Conc.): 160 µM (≈ 345 µg/mL)
- solubility (physchem; pH 7.5, Solubility Conc.): 387 µM (≈ 835 µg/mL)
- solubility (physchem; pH 7.6, Solubility Conc.): 497 µM (≈ 1070 µg/mL)
- solubility (physchem; pH 7.7, Solubility Conc.): 478 µM (≈ 1030 µg/mL)
- solubility (physchem; pH 7.8, Solubility Conc.): 451 µM (≈ 973 µg/mL)
- solubility (physchem; pH 8, Solubility Conc.): 493 µM (≈ 1060 µg/mL)

SMILES: CC(=O)N[C@H]1CCCCNC(=O)C[C@@H](C(=O)N2CCC[C@H]2C(=O)N2CCC[C@H]2C(=O)N[C@@H](Cc2c[nH]cn2)C(=O)N[C@@H](CO)C(=O)N[C@@H](CCCCN(CC(=O)O)CC(=O)O)C(=O)N[C@@H](CO)C(=O)N[C@@H](CO)C(=O)N[C@@H](CCC(=O)O)C(=O)N[C@@H](CCCCNC(=O)COCCOCCNC(=O)CCCCCCCCCCCCCCCC(=O)O)C(N)=O)NC(=O)[C@H](Cc2c[nH]c3ccccc23)NC(=O)[C@H](CCCNC(=N)N)NC(=O)[C@@H](Cc2ccccc2)NC(=O)[C@H](Cc2c[nH]cn2)NC1=O [Example 45, Ac-c[Lys-His-D-Phe-Arg-Trp-Asp]-Pro-Pro-His-Ser-Lys(biscarboxymethyl)-Ser-Ser-Glu-Lys({2-[2-(16-carboxyhexadecanoylamino)ethoxy]ethoxy}acetyl)-NH2] (Ac-KH[dF]RWDPPHS[Lys(CH2CO2H)2]SSEK([AEEA-C17 diacid])-NH2; lactam 1-6)
- pKi (MC1 receptor): < 5.00
- solubility (physchem; pH 6.4, Solubility Conc.): 199 µM (≈ 484 µg/mL)
- solubility (physchem; pH 6.7, Solubility Conc.): 334 µM (≈ 813 µg/mL)
- solubility (physchem; pH 6.8, Solubility Conc.): 350 µM (≈ 851 µg/mL)
- solubility (physchem; pH 7, Solubility Conc.): 370 µM (≈ 900 µg/mL)
- solubility (physchem; pH 7.3, Solubility Conc.): 391 µM (≈ 951 µg/mL)
- solubility (physchem; pH 7.5, Solubility Conc.): 380 µM (≈ 924 µg/mL)
- solubility (physchem; pH 7.7, Solubility Conc.): 379 µM (≈ 922 µg/mL)
- solubility (physchem; pH 7.9, Solubility Conc.): 391 µM (≈ 951 µg/mL)
- solubility (physchem; pH 8.1, Solubility Conc.): 400 µM (≈ 973 µg/mL)

SMILES: CC(=O)N[C@H]1CCC(=O)NCCCC[C@@H](C(=O)N2C[C@H](O)C[C@H]2C(=O)N2C[C@H](O)C[C@H]2C(=O)N[C@@H](CCCNC(=N)N)C(=O)N[C@@H](CC(=O)O)C(=O)N[C@@H](CCCCN(CC(=O)O)CC(=O)O)C(=O)N[C@@H](CCCCNC(=O)COCCOCCNC(=O)CCCCCCCCCCCCCCCc2nnn[nH]2)C(N)=O)NC(=O)[C@H](Cc2c[nH]c3ccccc23)NC(=O)[C@H](CCCNC(=N)N)NC(=O)[C@@H](Cc2ccccc2)NC(=O)[C@H](Cc2c[nH]cn2)NC1=O [Example 48, Ac-c[Glu-His-D-Phe-Arg-Trp-Lys]-Hyp-Hyp-Arg-Asp-Lys(biscarboxymethyl)-Lys[(2-{2-[16-(tetrazol-5-yl)hexadecanoylamino]ethoxy}ethoxy)acetyl]-NH2] (Ac-EH[dF]RWK[Hyp][Hyp]RD[Lys(CH2CO2H)2]K([AEEA-Palmitoyl(16-(5-tetrazolyl))])-NH2; lactam 1-6)
- pKi (MC1 receptor): < 5.00
- solubility (physchem; pH 6.7, Solubility Conc.): 54 µM (≈ 121 µg/mL)
- solubility (physchem; pH 7, Solubility Conc.): 107 µM (≈ 240 µg/mL)
- solubility (physchem; pH 7.3, Solubility Conc.): 218 µM (≈ 490 µg/mL)
- solubility (physchem; pH 7.4, Solubility Conc.): 309 µM (≈ 694 µg/mL)
- solubility (physchem; pH 7.5, Solubility Conc.): 368 µM (≈ 827 µg/mL)
- solubility (physchem; pH 7.6, Solubility Conc.): 416 µM (≈ 935 µg/mL)
- solubility (physchem; pH 7.8, Solubility Conc.): 430 µM (≈ 966 µg/mL)
- solubility (physchem; pH 8, Solubility Conc.): 420 µM (≈ 944 µg/mL)
- solubility (physchem; pH 8.1, Solubility Conc.): 418 µM (≈ 939 µg/mL)
- solubility (physchem; pH 8.3, Solubility Conc.): 412 µM (≈ 926 µg/mL)
